PMC8745263 (International Journal of Molecular Sciences, 2021)

Experiment: RP-HPLC mobility of peptide before and after H2O2 oxidation (hydrophilicity)
Assay type: physicochemical
Conditions: RP-HPLC/LC-MS, C18 column, H2O/CH3CN with TFA; before and after 3% H2O2 oxidation; Supplementary Figure S1A,B
Method: GDF11[48-64]wt was converted to the variant with oxidized methionines by treatment with 3% H2O2, monitoring the reaction progression by reverse-phase HPLC chromatography (RP-HPLC) and mass spectrometry, using the un-oxidized precursor as control. The occurrence of the peroxide oxidation rendered the peptide more hydrophilic than its unoxidized counterpart, as clearly indicated in Supplementary Figure S1A,B by the shift in the RP-HPLC mobility of GDF11[48-64]ox to shorter retention time (9.97 min) with respect to that of GDF11[48-64]wt (11.41 min).
All protected amino acids, including 7-N-Fmoc-aminocoumarin-4-acetic acid (Fmoc-ACA-OH), Fmoc-Met(O)-OH, the coupling agents (1-[Bis(dimethylamino)methylene]-1H-1,2,3-triazol [4,5-b]pyridinium 3-oxid-hexafluorophosphate (Hexafluorophosphate Azabenzotriazole Tetramethyl Uronium, HATU), diisopropylcarbodiimide (DIC), ethyl cyanohydroxyiminoacetate (OXYMA)) and Fmoc-Rink Amide AM Resin used for peptide synthesis were purchased from IRIS Biotech GmbH (Marktrewitz, DE). Acetonitrile (CH3CN), dimethylformamide (DMF), trifluoroacetic acid (TFA), and methanol (CH3OH) were purchased from ROMIL (Dublin, Ireland). […]
Figure S1. Oxidation reaction of GDF11[48-64]wt with hydrogen peroxide monitored by LC-ESI-TOF-MS (LC-MS) analysis. […] After incubation, the samples were collected and analyzed by LC-MS. […]

Substance | RP-HPLC retention time (shift to shorter time = more hydrophilic) [min]
Ac-EYM(ox)FM(ox)QKYPHTHLVQQA-NH2 [GDF11[48-64] wt ox, GDF11[48-64]wt bearing sulphoxide groups on M50 and M52, by 3% H2O2 treatment] | 9.97
Ac-EYMFMQKYPHTHLVQQA-NH2 [GDF11[48-64]wt, peptide reproducing the 48–64 region of GDF11 protein, acetylated and amidated] | 11.41
